Test results as given in patent publication US20020137750A1, “Amidine derivatives which are inhibitors of nitric oxide synthase” (priority 1999, published 2002).

melting point	Structure (SMILES)
126 to 127 °C	N=C(Nc1ccc(OC2CCCC2)c(CN2CCC[C@@H]2CO)c1)c1cccs1 [Example 21, N-(4-(Cyclopentyloxy)-3{[(2R)-2-(Hydroxymethyl)Pyrrolidinyl]Methyl}Phenyl)-2-Thiophenecarboximidamide]
116 to 118 °C	CN(CCO)Cc1cc(NC(=N)c2cccs2)ccc1C1CCCC1 [Example 30, N-(4-Cyclopentyl-3-{[(2-Hydroxyethyl)(Methyl)Amino]Methyl}Phenyl)-2-Thiophenecarboximidamide]
132 to 133 °C	N=C(Nc1ccc(C2CCCC2)c(CN2CCC[C@H]2CO)c1)c1cccs1 [Example 31, N-(4-Cyclopentyl-3-{[(2S)-2-(Hydroxymethyl)Pyrrolidinyl]Methyl}Phenyl)-2-Thiophenecarboximidamide]
